{"source": "patent US10375959B2", "about": "“Ternary herbicidal combination comprising saflufenacil” (BASF Agro B.V., priority 2015, dated 2019)", "format_in_all_cases": "in vivo", "key": {"Amaranthus retroflexus": {"test_system": "Amaranthus retroflexus", "assay": "Greenhouse post-emergence herbicidal activity on AMARE (pig weed), 20 DAT", "text": "(§1) The test plants were first grown to a height of 3 to 20 cm, depending on the plant habit, and only then treated (post-emergence treatment). Here, the herbicidal combinations were suspended, emulsified or dissolved in water as distribution medium and afterwards applied by spraying, using finely distributing nozzles.\n(§2) The herbicides A, B and C were used as commercially available formulations and introduced to the spray liquor with the amount of solvent system used for applying the active compound. In the examples, the solvent used was water.\n(§3) The test period extended over 20 days. During this time, the plants were tended, and their response to the treatments with active compounds was evaluated.\n(§4) The evaluation for the damage caused by the chemical compositions was carried out using a scale from 0 to 100%, compared to the untreated control plants. Here, 0 means no damage and 100 means complete destruction of the plants.\n(§5) The plants used in the greenhouse experiments belonged to the following species:\n(§6) The value E, which is to be expected if the activity of the individual compounds is just additive, was calculated using the method of S. R. Colby (1967) “Calculating synergistic and antagonistic responses of herbicide combinations”, Weeds 15, p. 22 ff. For two component mixtures the value E was calculated by the following formula E=X+Y−(X·Y/100)\n(§7) where X=effect in percent using a mixture of herbicides A and B at application rates a and b, respectively; • Y=effect in percent using herbicide C at an application rate c; • E=expected effect (in %) of A+B+C at application rates a+b+c.\n(§8) If the value observed in this manner is higher than the value E calculated according to Colby, a synergistic effect is present.\n(§9) Tables 1 to 41 relate to the herbicidal activities of the binary mixture of herbicides A and B, of herbicide C individually and of their combinations in post-emergence applications assessed 20 days after treatment (20 DAT)."}, "Avena fatua": {"test_system": "Avena fatua", "assay": "Greenhouse post-emergence herbicidal activity on AVEFA (wild oat), 20 DAT", "text": "as §1, §2, §3, §4, §5, §6, §7, §8, §9"}, "Echinochloa crus-galli": {"test_system": "Echinochloa crus-galli", "assay": "Greenhouse post-emergence herbicidal activity on ECHCG (barnyardgrass), 20 DAT", "text": "as §1, §2, §3, §4, §5, §6, §7, §8, §9"}, "Brachiaria decumbens": {"test_system": "Brachiaria decumbens", "assay": "Greenhouse post-emergence herbicidal activity on BRADC (Surinam grass), 20 DAT", "text": "as §1, §2, §3, §4, §5, §6, §7, §8, §9"}, "Abutilon theophrasti": {"test_system": "Abutilon theophrasti", "assay": "Greenhouse post-emergence herbicidal activity on ABUTH (velvetleaf), 20 DAT", "text": "as §1, §2, §3, §4, §5, §6, §7, §8, §9"}, "Setaria viridis": {"test_system": "Setaria viridis", "assay": "Greenhouse post-emergence herbicidal activity on SETVI (green foxtail), 20 DAT", "text": "as §1, §2, §3, §4, §5, §6, §7, §8, §9"}, "Brachiaria platyphylla": {"test_system": "Brachiaria platyphylla", "assay": "Greenhouse post-emergence herbicidal activity on BRAPP (broadleaf signalgrass), 20 DAT", "text": "as §1, §2, §3, §4, §5, §6, §7, §8, §9"}, "Digitaria sanguinalis": {"test_system": "Digitaria sanguinalis", "assay": "Greenhouse post-emergence herbicidal activity on DIGSA (large crabgrass), 20 DAT", "text": "as §1, §2, §3, §4, §5, §6, §7, §8, §9"}, "Solarium nigrum": {"test_system": "Solarium nigrum", "assay": "Greenhouse post-emergence herbicidal activity on SOLNI (black nightshade), 20 DAT", "details": "C 0.5 g ai/ha", "text": "as §1, §2\nThe test period extended over 20 days. During this time, the plants were tended, and their response to the treatments with active compounds was evaluated. […]\nThe value E, which is to be expected if the activity of the individual compounds is just additive, was calculated using the method of S. R. Colby (1967) “Calculating synergistic and antagonistic responses of herbicide combinations”, Weeds 15, p. […] For two component mixtures the value E was calculated by the following formula E=X+Y−(X·Y/100) […]\nas §8, §9"}}, "note": "Where “and” joins values, the source holds several entries; their conditions need not be identical. Equal entries are not always repeated.", "data": [{"compound": "Cc1c(C(=O)c2cnn(C)c2O)ccc(S(C)(=O)=O)c1C1=NOCC1", "note": "[topramezone]", "values": [{"measurement": "% activity 20 DAT, solo C application", "setting": "Amaranthus retroflexus; AMARE, 0.25 g ai/ha, 20 DAT", "result": 40, "unit": "%"}, {"measurement": "% activity 20 DAT", "setting": "Amaranthus retroflexus; AMARE, C 0.25 g ai/ha", "result": 40, "unit": "%"}, {"measurement": "% activity 20 DAT, solo C application", "setting": "Avena fatua; 0.25 g ai/ha, 20 DAT", "result": 0, "unit": "%"}, {"measurement": "% activity 20 DAT, solo C application", "setting": "Echinochloa crus-galli; 0.25 g ai/ha, 20 DAT", "result": 25, "unit": "%"}, {"measurement": "% activity 20 DAT", "setting": "Echinochloa crus-galli; C 0.25 g ai/ha", "result": "25% and 20%"}, {"measurement": "% activity 20 DAT", "setting": "Brachiaria decumbens; C 0.25 g ai/ha", "result": 0, "unit": "%"}, {"measurement": "% activity 20 DAT", "setting": "Brachiaria decumbens; C 0.5 g ai/ha", "result": 0, "unit": "%"}, {"measurement": "% activity 20 DAT, solo C application", "setting": "Abutilon theophrasti; ABUTH, 0.25 g ai/ha, 20 DAT", "result": 10, "unit": "%"}, {"measurement": "% activity 20 DAT", "setting": "Abutilon theophrasti; ABUTH, C 0.25 g ai/ha", "result": "10% and 0%"}, {"measurement": "% activity 20 DAT, solo C application", "setting": "Setaria viridis; 0.25 g ai/ha, 20 DAT", "result": 0, "unit": "%"}, {"measurement": "% activity 20 DAT", "setting": "Setaria viridis; C 0.25 g ai/ha", "result": 0, "unit": "%"}, {"measurement": "% activity 20 DAT", "setting": "Setaria viridis; C 0.5 g ai/ha", "result": 0, "unit": "%"}]}, {"compound": "C#CCN1C(=O)COc2cc(F)c(N3C(=O)C4=C(CCCC4)C3=O)cc21", "note": "[flumioxazin]", "values": [{"measurement": "% activity 20 DAT", "setting": "Setaria viridis; C 0.5 g ai/ha", "result": 40, "unit": "%"}]}, {"compound": "CCNc1nc(Cl)nc(NC(C)C)n1", "note": "[atrazine]", "values": [{"measurement": "% activity 20 DAT", "setting": "Avena fatua; C 12.5 g ai/ha", "result": 0, "unit": "%"}, {"measurement": "inhibition at 12.5 g/ha", "setting": "Abutilon theophrasti; Abutilon theophrasti, 480 h, ABUTH, 12.5 g ai/ha, 20 DAT, read-out: % activity 20 DAT, solo C application", "result": 25, "unit": "%"}, {"measurement": "inhibition at 25 g/ha", "setting": "Setaria viridis; Setaria viridis, 480 h, 25.0 g ai/ha, 20 DAT, read-out: % activity 20 DAT, solo C application", "result": 25, "unit": "%"}, {"measurement": "% activity 20 DAT", "setting": "Brachiaria platyphylla; C 12.5 g ai/ha", "result": 0, "unit": "%"}]}, {"compound": "CCSC(C)CC1CC(=O)C(/C(CC)=N/OC/C=C/Cl)=C(O)C1", "note": "(stereo not shown) [clethodim]", "values": [{"measurement": "inhibition at 0.75 g/ha", "setting": "Amaranthus retroflexus; Amaranthus retroflexus, 480 h, read-out: % activity 20 DAT, solo C application", "result": 20, "unit": "%"}, {"measurement": "% activity 20 DAT", "setting": "Avena fatua; C 0.75 g ai/ha", "result": 20, "unit": "%"}, {"measurement": "pest or weed control at 0.75 g/ha", "setting": "Abutilon theophrasti; Abutilon theophrasti, 480 h, read-out: % activity 20 DAT", "result": 5, "unit": "%"}, {"measurement": "inhibition at 0.75 g/ha", "setting": "Abutilon theophrasti; Abutilon theophrasti, 480 h, read-out: % activity 20 DAT, solo C application", "result": 5, "unit": "%"}, {"measurement": "inhibition at 0.75 g/ha", "setting": "Digitaria sanguinalis; Digitaria sanguinalis, 480 h, read-out: % activity 20 DAT, solo C application", "result": 0, "unit": "%"}]}, {"compound": "CS(=O)(=O)c1cc(C(F)(F)F)ccc1C(=O)c1cnoc1C1CC1", "note": "[isoxaflutole]", "values": [{"measurement": "% activity 20 DAT", "setting": "Solarium nigrum", "result": 70, "unit": "%"}, {"measurement": "inhibition at 0.5 g/ha", "setting": "Abutilon theophrasti; Abutilon theophrasti, 480 h, ABUTH, 0.5 g ai/ha, 20 DAT, Table 36, read-out: % activity 20 DAT, solo C application", "result": 50, "unit": "%"}, {"measurement": "pest or weed control at 1 g/ha", "setting": "Abutilon theophrasti; Abutilon theophrasti, 480 h, ABUTH, C 1.0 g ai/ha", "result": 85, "unit": "%"}, {"measurement": "% activity 20 DAT", "setting": "Brachiaria platyphylla; C 2.0 g ai/ha", "result": 40, "unit": "%"}, {"measurement": "% activity 20 DAT", "setting": "Digitaria sanguinalis; DIGSA, C 1.0 g ai/ha", "result": 25, "unit": "%"}]}, {"compound": "CS(=O)(=O)NC(=O)c1cc(Oc2ccc(C(F)(F)F)cc2Cl)ccc1[N+](=O)[O-]", "note": "[fomesafen]", "values": [{"measurement": "inhibition at 3 g/ha", "setting": "Amaranthus retroflexus; Amaranthus retroflexus, 480 h, AMARE, 3.0 g ai/ha, 20 DAT, read-out: % activity 20 DAT, solo C application", "result": 65, "unit": "%"}, {"measurement": "% activity 20 DAT", "setting": "Avena fatua; C 1.5 g ai/ha", "result": 20, "unit": "%"}, {"measurement": "inhibition at […]", "setting": "Echinochloa crus-galli; Echinochloa crus-galli, 480 h, 1.5 g ai/ha, 20 DAT, read-out: % activity 20 DAT, solo C application", "result": 20, "unit": "%"}, {"measurement": "% activity 20 DAT", "setting": "Brachiaria decumbens; C 3.0 g ai/ha", "result": 30, "unit": "%"}, {"measurement": "inhibition at 3 g/ha", "setting": "Abutilon theophrasti; Abutilon theophrasti, 480 h, ABUTH, 3.0 g ai/ha, 20 DAT, read-out: % activity 20 DAT, solo C application", "result": 20, "unit": "%"}, {"measurement": "pest or weed control at […]", "setting": "Abutilon theophrasti; Abutilon theophrasti, 480 h, ABUTH, C 1.5 g ai/ha", "result": 5, "unit": "%"}, {"measurement": "inhibition at […]", "setting": "Digitaria sanguinalis; Digitaria sanguinalis, 480 h, DIGSA, 1.5 g ai/ha, 20 DAT, read-out: % activity 20 DAT, solo C application", "result": 20, "unit": "%"}]}, {"compound": "CCOCN(C(=O)CCl)c1c(C)cccc1CC", "note": "[acetochlor]", "values": [{"measurement": "% activity 20 DAT", "setting": "Amaranthus retroflexus; AMARE, C 12.5 g ai/ha", "result": 0, "unit": "%"}, {"measurement": "% activity 20 DAT", "setting": "Avena fatua; C 50.0 g ai/ha", "result": 10, "unit": "%"}, {"measurement": "pest or weed control at 25 g/ha", "setting": "Abutilon theophrasti; Abutilon theophrasti, 480 h, ABUTH, C 25.0 g ai/ha", "result": 25, "unit": "%"}, {"measurement": "% activity 20 DAT", "setting": "Setaria viridis; C 50.0 g ai/ha", "result": 10, "unit": "%"}, {"measurement": "% activity 20 DAT", "setting": "Brachiaria platyphylla; C 50.0 g ai/ha", "result": 5, "unit": "%"}]}, {"compound": "CCC(CC)Nc1c([N+](=O)[O-])cc(C)c(C)c1[N+](=O)[O-]", "note": "[pendimethalin]", "values": [{"measurement": "% activity 20 DAT", "setting": "Avena fatua; C 150.0 g ai/ha", "result": 0, "unit": "%"}, {"measurement": "% activity 20 DAT", "setting": "Echinochloa crus-galli; C 75.0 g ai/ha", "result": 0, "unit": "%"}, {"measurement": "% activity 20 DAT", "setting": "Echinochloa crus-galli; C 150.0 g ai/ha", "result": 0, "unit": "%"}, {"measurement": "pest or weed control at 37.5 g/ha", "setting": "Abutilon theophrasti; Abutilon theophrasti, 480 h, ABUTH, C 37.5 g ai/ha", "result": 0, "unit": "%"}]}]}
